{"source": "patent US8835605B2", "about": "“Uses of cancer-targeting peptides in cancer diagnosis” (Academia Sinica, priority 2009, dated 2014)", "key": {"[1]": {"system": "BT483 breast cancer xenografts", "assay": "In vivo binding (homing) of test phages to breast cancer xenografts, phage recovery from tissues", "parameters": "species or system SCID mice", "conditions": "heart, lung; for recovery rates of phage from tumor tissues compared with normal organs: 10^9 pfu i.v., tumor vs brain, FIG. 1", "method": "SCID mice were injected subcutaneously (s.c.) in the dorsolateral flank with 1×10^7 BT483 cells to induce breast cancer xenografts. The mice bearing xenograft tumors at a size of around 300 mm^3 were administered intravenously (i.v.) with one of the five test phages mentioned in Example 1 above (10^9 pfu) or a control phage. After perfusion, xenograft tumors and organs (i.e., brain, heart, and lung) were removed from each mouse and homogenized. The phages bound to each tissue sample were eluted, recovered using ER2738 bacterial cells as the host, and titered on IPTG/X-Gal agar plates, following the methods described in Lee et al., Cancer Res. 67:10958-10965 (2007) and Lo et al., Mol. Cancer. Ther 7:579-589 (2008)."}, "[2]": {"system": "breast tumor xenografts (PC90 binding)", "assay": "In vivo competition: peptide co-injected with PC90, immunostaining of tumor tissues", "parameters": "species or system mice", "conditions": "100 μg peptide co-injected with PC90", "method": "SP90 was co-administered to test its ability of blocking PC90 from binding to the tumor tissues. Briefly, 100 μg SP90 or the control peptides described above were co-injected with PC90 to mice bearing breast tumor xenografts. The normal organs and tumor tissues were removed and fixed in Bouin's solution (Sigma, Mo., USA). After fixation, the samples were embedded in paraffin blocks, sliced to sections, and the sections were deparaffinized, rehydrated, and subjected to immunostaining using the mouse anti-M13 mAb described in Example 1 above."}, "[3]": {"system": "cancer cells in the tissue samples (PC90 binding)", "assay": "Peptide competition assay on cancer tissue samples", "parameters": "species or system human", "conditions": "peptide 100 ng/ml with PC90 10^9 pfu", "method": "(§1) Fresh breast cancer tissue samples were obtained from twenty patients having mammary infiltrating ducal carcinoma. Each of the tissue samples was sliced to 4 μm and fixed in 1% paraformaldehyde. The sliced tissue samples were then incubated with PC90 or a control phage. After being washed by PBS containing […] (PBST0.1), the samples were incubated with an anti-M13 mouse mAb (Amersham Biosciences, Piscataway, N.J., USA) for 1 hour at room temperature, washed again with PBST0.1, and the immunoreactivity of each sample was determined using a biotin-free super sensitive polymer-HRP detection system (Biogenex, San Ramon, Calif., USA), following the procedures described in Lee et al. (2004) and Lo et al. The slides, to which the tissue samples were attached, were counterstained with hematoxylin, mounted with Aquatex (Merck, Dannstadt, Germany), and examined by light microscopy. The percentage of the positively stained cells was determined following a method described in Hall et al., J. Pathol. 172:1-4 (1994).\nThe cancer targeting activity of PC90 was confirmed by a peptide competition assay, in which the cancer tissue samples were incubated with (1) the synthetic peptide (100 ng/ml) SMDPFLFQLLQL (SEQ ID NO:5) (SP90) and PC90 (10^9 pfu) or (2) the control peptide (100 ng/ml) RLLDTNRPLLPY (SEQ ID NO:6; see Lee et al., Cancer Res. 64:8002-8008, 2004) and PC90. […]"}, "[4]": {"system": "breast cancer tissue samples (mammary infiltrating ducal carcinoma)", "assay": "Immunostaining of patient breast cancer biopsy samples with phage", "parameters": "species or system human", "conditions": "biopsy samples from twenty patients; anti-M13 immunostaining", "method": "as §1"}}, "data": [{"sequence": "TVSWSTTGRIPL (SEQ ID NO: 3) [PC73]", "values": [{"measurement": "recovery rates of phage from tumor tissues compared with normal organs", "setting": "[1]", "result": "much higher"}]}, {"sequence": "QLEFYTQLAHLI (SEQ ID NO: 4) [PC82]", "values": [{"measurement": "recovery rates of phage from tumor tissues compared with normal organs", "setting": "[1]", "result": "much higher"}]}, {"sequence": "RLLDTNRPLLPY (SEQ ID NO:6) [control peptide, synthetic control peptide, see Lee et al., Cancer Res. 64:8002-8008, 2004, reference compound]", "values": [{"measurement": "inhibition of PC90 binding to the tumor tissues (words)", "setting": "[2]", "result": "did not exhibit any inhibitory activity"}, {"measurement": "competition against PC90 for binding to cancer cells in tissue samples", "setting": "[3]", "result": "not"}]}, {"sequence": "SMDPFLFQLLQL (SEQ ID NO: 5) [PC90]", "values": [{"measurement": "recovery rates of phage from tumor tissues compared with normal organs", "setting": "[1]", "result": "much higher"}, {"measurement": "targeting of tumor xenografts and normal organs", "setting": "[1]; i.v., tumor xenografts vs brain", "result": "bound to cancer cells in the tumor xenografts but not to normal organs"}, {"measurement": "patients determined as carrying breast cancer cells", "setting": "[4]", "result": "18 out of the 20"}]}, {"sequence": "QNIYAGVPMISF (SEQ ID NO: 1) [PC34]", "values": [{"measurement": "recovery rates of phage from tumor tissues compared with normal organs", "setting": "[1]", "result": "much higher"}]}, {"sequence": "EATNSHGSRTMG (SEQ ID NO: 2) [PC65]", "values": [{"measurement": "recovery rates of phage from tumor tissues compared with normal organs", "setting": "[1]", "result": "much higher"}]}, {"sequence": "SMDPFLFQLLQL (SEQ ID NO:5) [SP90, synthetic peptide …]", "values": [{"measurement": "inhibition of PC90 binding to the tumor tissues", "setting": "[2]", "result": 97, "unit": "%"}, {"measurement": "inhibition of PC90 binding to the tumor tissues (words)", "setting": "[2]", "result": "significantly inhibited"}, {"measurement": "competition against PC90 for binding to cancer cells in tissue samples", "setting": "[3]", "result": "competed against PC90 for binding to the cancer cells"}]}]}
